In ChEMBL document CHEMBL3244165, “Improved synthesis and in vitro antiviral activities of 5-cyanouridine and 5-cyano-2'-deoxyuridine” (J Med Chem, 1977) one finds ID50 data, which are given here for eight compounds.

A value given as a limit tells only on which side of the number the result lay.

The assay deals with Vaccinia virus. Kind of assay: Antiviral activity against Vaccinia virus infected in primary rabbit kidney cells assessed as inhibition of virus-induced cytopathogenicity. It counts as functional, Orthopoxvirus vaccinia. For orientation: Cytopathic effects are the visible damage that an infection or toxin causes in cultured cells.
In the case of `O=c1[nH]c(=O)n([C@H]2C[C@H](O)[C@@H](CO)O2)cc1I` [IDOXURIDINE], the ID50 stood at 1.1 ×10⁻⁶ M. For `N#Cc1cn([C@@H]2O[C@H](CO)[C@@H](O)[C@H]2O)c(=O)[nH]c1=O`, the ID50 is >3.7 ×10⁻⁴ M. For `O=c1[nH]c(=O)n([C@H]2C[C@H](O)[C@@H](CO)O2)cc1Cl` [CHLORODEOXYURIDINE], the ID50 turned out to be 7.6 ×10⁻⁷ M. Then `O=c1[nH]c(=O)n([C@H]2C[C@H](O)[C@@H](CO)O2)cc1F` [FLOXURIDINE], with 4 ×10⁻⁷ M. On to `N#Cc1cn([C@H]2C[C@H](O)[C@@H](CO)O2)c(=O)[nH]c1=O`, for which the ID50 came out at 1.6 ×10⁻⁵ M.

As to `Nc1ncnc2c1ncn2[C@@H]1O[C@H](CO)[C@@H](O)[C@@H]1O` [VIDARABINE], the ID50 is on record as 1.4 ×10⁻⁶ M. As to `O=c1[nH]c(=O)n([C@H]2C[C@H](O)[C@@H](CO)O2)cc1Br` [BROXURIDINE], the ID50 stood at 3.2 ×10⁻⁷ M. For the compound `O=c1[nH]c(=O)n([C@H]2C[C@H](O)[C@@H](CO)O2)cc1C(F)(F)F` [TRIFLURIDINE], the ID50 was determined as 3.3 ×10⁻⁷ M.
